Here are results for 16 compounds from patent US11701353B2, “Methods, compositions, and uses of novel FYN kinase inhibitors” (Pathways Neuro Pharma, Inc., priority 2015, dated 2023).

Sequence of full-length recombinant human FYN A (P06241 whole entry): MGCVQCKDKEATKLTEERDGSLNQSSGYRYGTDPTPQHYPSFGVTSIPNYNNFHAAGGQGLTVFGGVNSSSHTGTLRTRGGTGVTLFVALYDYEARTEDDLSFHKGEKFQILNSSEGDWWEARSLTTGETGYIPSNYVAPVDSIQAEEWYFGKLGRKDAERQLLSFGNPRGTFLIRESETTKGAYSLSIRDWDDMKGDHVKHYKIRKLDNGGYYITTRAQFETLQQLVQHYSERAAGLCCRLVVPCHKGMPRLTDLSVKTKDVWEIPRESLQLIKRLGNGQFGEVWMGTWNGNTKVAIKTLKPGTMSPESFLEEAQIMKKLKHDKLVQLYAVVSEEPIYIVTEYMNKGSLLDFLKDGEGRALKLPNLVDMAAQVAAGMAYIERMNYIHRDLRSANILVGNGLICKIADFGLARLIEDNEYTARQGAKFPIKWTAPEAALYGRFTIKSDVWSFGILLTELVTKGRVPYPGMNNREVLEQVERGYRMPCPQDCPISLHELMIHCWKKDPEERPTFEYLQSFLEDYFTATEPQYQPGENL

The target of one test is Fyn (Mus musculus (Mouse), UniProt P39688).
Sequence of Fyn (P39688 whole entry): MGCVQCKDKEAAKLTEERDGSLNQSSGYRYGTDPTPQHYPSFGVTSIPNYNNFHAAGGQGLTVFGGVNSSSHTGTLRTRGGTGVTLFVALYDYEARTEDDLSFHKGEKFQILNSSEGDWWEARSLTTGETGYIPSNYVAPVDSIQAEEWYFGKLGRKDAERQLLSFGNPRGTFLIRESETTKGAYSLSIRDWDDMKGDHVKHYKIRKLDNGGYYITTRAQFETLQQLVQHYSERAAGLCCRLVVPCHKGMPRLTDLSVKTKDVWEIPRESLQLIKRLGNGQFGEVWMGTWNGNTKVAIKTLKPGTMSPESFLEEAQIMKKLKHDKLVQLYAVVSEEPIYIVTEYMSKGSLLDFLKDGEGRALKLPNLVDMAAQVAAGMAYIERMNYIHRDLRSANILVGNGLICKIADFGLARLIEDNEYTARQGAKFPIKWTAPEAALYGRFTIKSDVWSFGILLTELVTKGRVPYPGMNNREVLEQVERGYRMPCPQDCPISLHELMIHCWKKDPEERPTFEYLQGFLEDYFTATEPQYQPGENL
Test: not given
As to conditions: Fyn knockout strains; cited from earlier work.
Turning to `CN(C)S(=O)(=O)c1ccc2c(c1)/C(=C/c1cc3c([nH]1)CCCC3)C(=O)N2` [SU6656], the energy utilization entry is recorded as “no increase” and the lipid utilization entry is listed as “no increase”.

The test is the same for the next values; noted with them: treated mice relative to untreated control mice; cited from earlier work.
On to `CN(C)S(=O)(=O)c1ccc2c(c1)/C(=C/c1cc3c([nH]1)CCCC3)C(=O)N2` [SU6656], for which the fat mass result is “significantly reduced”.

A further test has as its target full-length recombinant human FYN A (Homo sapiens (Human), UniProt P06241). Briefly: ADP-Glo Kinase Assay, FYN kinase inhibition (primary and secondary screen). The test is classed as biochemical. Conditions: primary screen, initial compounds. The text has this: The chemical library was comprised of the SoftFocus ATP-competitive hinge binding compounds described by Harris, C. J., Hill, R. D., Sheppard, D. W., et al., The Design and Application of Target-Focused Compound Libraries. Combinatorial Chemistry and High Throughput Screening 14:521-31 (2011). The specific pharmacore chemistries included SFK52 comprising 6-[R2]-3-[R1]imidazo[1,2-b] pyridazine compounds, SFK33 comprising N-(3-[R2] imidazo [1,2-b] pyridazin-6-yl) [R1] amine compounds, SFK49 comprising N-(5-[R2] imidazo [2,1-b][1,3,4] thiadiazol-2-yl)[R1]-amine compounds, SFK 40 comprising 5-[R2]-3-[R1] pyridin-2-amine compounds, SFK43 comprising 6-[R2]-3-[R1]imidazo[1,2-a] pyrazine compounds, and SFK63. The chemical structures of the initial 600 potential kinase inhibitors are presented in Table 3, with those chosen for additional analysis presented in Table 4. Comparison of the compounds presented in Table 1 and those of Tables 2, 3 and 4, illustrate the novelty of the chemical structures claimed herein.
FYN kinase (10 micrograms) was from the FYN A Kinase Enzyme System (V3571, Promega UK Ltd.), a full-length recombinant human FYN A containing an N-terminal GST tag of about 85 kDa, expressed by bacullovirus in […] insect cells, supplied at a concentration of 0.1 microgram/microliter in 5× reaction buffer. The FYN substrate, a 12 amino acid peptide of the sequence […], containing a single tyrosine phosphorylation site, was custom synthesized (Peptide Synthetics, Peptide Protein Research, Fareham, UK) and supplied as a 4 mg/ml aqueous solution. All other reagents were obtained from Sigma (Sigma-Aldrich, Gillingham, Dorset, UK), with the exception of UltraPure ATP (V9102, Promega UK Ltd.) and the ATP-competitive broad spectrum protein kinase inhibitor staurosporine (569397, Merck Millipore, Watford, Hertfordshire, UK), or as otherwise indicated.
The assay procedure determines the IC50 of each potential FYN kinase inhibitor by measuring the enzyme catalyzed ATP-dependent phosphorylation of the FYN substrate peptide. The ADP-Glo™ Kinase Assay is specifically designed to quantify kinase activity by measuring the ADP produced in the reaction The reaction buffer comprises 40 mM Tris·HCl (pH 7.5), 20 mM MgCl2, 0.1 mg/ml BSA and 5 microM DTT. Individual compounds within the chemical library were dissolved in DMSO at known concentrations. Briefly, 2.5 microliters of reaction buffer containing 3 picograms of FYN kinase and serial dilutions of each potential FYN kinase inhibitor (9 3-fold dilutions of a 10 micromolar top sample) are placed into each well of a 384 well microtiter plate and incubated at room temperature for 30 minutes. An additional 2.5 microliters of reaction buffer containing 100 picograms of the FYN substrate and 12.5 picomoles of ATP are then added to each well and the reaction carried out for 90 minutes at room temperature. The reactions are terminated by addition of 5 microliters of the ADP-Glo™ Reagent component of the ADP-Glo™ Kinase Assay kit to each well. The ADP-Glo™ Reagent comprises an ATP-dependent adenylate cyclase, an inorganic pyrophosphatase and an excess of staurosporine. The adenylate cyclase converts the remaining ATP to cAMP and pyrophospahte, the pyrophosphatase converts the pyrophosphate to phosphate and the staurosporine inhibits the activity of the FYN kinase, the net effect is to remove all residual ATP while preserving the ADP produced by FYN kinase. The terminated reactions are incubated for 40 minutes at room temperature, prior to addition of the Kinase Detection Reagent component of the ADP-Glo™ Kinase Assay kit to each well. The Kinase Detection Reagent comprises pyruvate kinase, phosphoenol pyruvate (PEP), luciferin and luciferase. The pyruvate kinase converts PEP to pyruvate and in the process generates ATP from the residual ADP present in the terminated reaction. […]
In general terms: ADP-Glo turns the ADP formed in a reaction into a luminescent signal.
Take `Cc1ccccc1CNc1nn2c(-c3cccc(C(=O)N(C)C)c3)cnc2s1` [699_8074_0349, N,N-dimethyl-3-[2-(o-tolylmethyl-amino)imidazo[2,1-b][1,3,4]thia-diazol-5-yl]benzamide]: the half-inhibitory concentration (IC50) – broadly, the concentration needed to halve the response being measured – is 3730 nM. The same measure, in the same setting: in the case of `NC(=O)c1ccc(-c2cnc3ccc(Cc4ccc(F)cc4)nn23)cc1` [828_0346_6370, 4-[6-[(4-fluorophenyl)methyl]imidazo [1,2-b]pyridazin-3-yl]benzamide] it was 1300 nM; in that of `OCc1ccc(-c2cnc3ccc(NCc4ccco4)nn23)cc1` [229_0144_0285, [4-[6-(2-furylmethyl-amino)imidazo[1,2-b]pyridazin-3-yl]phenyl] methanol], 2200 nM. On the same count and under the same terms, in the case of `OCc1cccc(-c2cnc3ccc(NCc4ccco4)nn23)c1` [229_0144_0291, [3-[6-(2-furylmethyl-amino)imidazo[1,2-b]pyridazin-3-yl]phenyl] methanol] it was 3860 nM; in that of `CC(=O)c1cccc(-c2cnc3ccc(NCc4ccco4)nn23)c1` [229_0144_4145, 1-[3-[6-(2-furylmethyl-amino)imidazo[1,2-b]pyridazin-3-yl]phenyl] ethanone], 997 nM. With `c1csc(-c2cnc3ccc(-c4ccncc4)nn23)c1` [828_4147_0069, 6-(4-pyridyl)-3-(2-thienyl)imidazo [1,2-b]pyridazine], the 50% inhibitory concentration (IC50) turned out to be 497 nM. On the same count and under the same terms, the figure for `COc1ccc(-c2cnc3ccc(Cc4ccccc4)nn23)cc1OC` [828_0079_6001, 6-benzyl-3-(3,4-dimethoxyphen-yl)imidazo[1,2-b]pyridazine] is 974 nM. Same read-out and setting: the figure for `O=CNc1cc(-c2ccc(C(=O)N3CCOCC3)cc2)cn2c(-c3ccc(F)cc3)cnc12` [788_0339_0337, N-[3-(4-fluorophenyl)-6-[4-(morpholine-4-carbonyl)phenyl]imidazo[1,2-a]pyridin-8-yl]formamide] is 3590 nM; for `CC(=O)Nc1cccc(-c2cncc(NCc3ccco3)n2)c1` [035_0144_0081, N-[3-[6-(2-furylmethyl-amino)pyrazin-2-yl]phenyl] acetamide] it is 11200 nM; for `NC(=O)c1cccc(-c2cnc3sc(NCC4CC4)nn23)c1` [699_4051_0347, 3-[2-(cyclopropyl-methyl-amino)imidazo [2,1-b][1,3,4]thia-diazol-5-yl]benzamide] it is 1940 nM. Turning to `Oc1cccc(-c2cncc(NCc3ccoc3)c2)c1` [081_0284_2069, 3-[5-(3-furylmethyl-amino)-3-pyridyl]phenol], the IC50 was found to be 10900 nM.

The test is the same for the next values; noted with them: secondary screen, candidate compounds re-synthesized and expanded.
In the case of `COc1cc(-c2cnc3ccc(NCc4cccs4)nn23)ccc1O` [BF000145954, 2-methoxy-4-[6-(2-thienylmeth-ylamino)imi-dazo[1,2-b]pyridazin-3-yl]phenol], the half-maximal inhibitory concentration (IC50) stood at 166 nM.

For the compound `COc1cc(-c2cnc3ccc(NCc4ccccn4)nn23)ccc1O` [BF000817095, 2-methoxy-4-[6-(2-pyridylmeth-ylamino)imi-dazo[1,2-b]pyridazin-3-yl]phenol], the IC50 was 233 nM.

As to `CN(C)C(=O)c1cccc(-c2cnc3sc(NCc4ccc5c(c4)OCO5)nn23)c1` [BF000717214, 3-[2-(1,3-benzodioxol-5-ylmethyl-amino)imi-dazo[2,1-b][1,3,4]thia-diazol-5-yl]-N,N-dimethyl-benzamide], the IC50 turned out to be 1930 nM. For `CN(C)C(=O)c1cccc(-c2cnc3sc(NCC4CC4)nn23)c1` [BF000714798, 3-[2-(cyclopropyl-methylamino)imidazo[2,1-b][1,3,4]thia-diazol-5-yl]-N,N-dimethyl-benzamide], the IC50 stood at 884 nM.
